ChEMBL document CHEMBL1955725, “Structure-guided lead optimization of triazolopyrimidine-ring substituents identifies potent Plasmodium falciparum dihydroorotate dehydrogenase inhibitors with clinical candidate potential” (J Med Chem, 2011)
In brackets after ≈: the same amount, converted by molar mass.

Tests used:
[1] = target: T1, Dihydroorotate dehydrogenase (Plasmodium falciparum, UniProt Q54A96)
T1 sequence (Q54A96 whole entry): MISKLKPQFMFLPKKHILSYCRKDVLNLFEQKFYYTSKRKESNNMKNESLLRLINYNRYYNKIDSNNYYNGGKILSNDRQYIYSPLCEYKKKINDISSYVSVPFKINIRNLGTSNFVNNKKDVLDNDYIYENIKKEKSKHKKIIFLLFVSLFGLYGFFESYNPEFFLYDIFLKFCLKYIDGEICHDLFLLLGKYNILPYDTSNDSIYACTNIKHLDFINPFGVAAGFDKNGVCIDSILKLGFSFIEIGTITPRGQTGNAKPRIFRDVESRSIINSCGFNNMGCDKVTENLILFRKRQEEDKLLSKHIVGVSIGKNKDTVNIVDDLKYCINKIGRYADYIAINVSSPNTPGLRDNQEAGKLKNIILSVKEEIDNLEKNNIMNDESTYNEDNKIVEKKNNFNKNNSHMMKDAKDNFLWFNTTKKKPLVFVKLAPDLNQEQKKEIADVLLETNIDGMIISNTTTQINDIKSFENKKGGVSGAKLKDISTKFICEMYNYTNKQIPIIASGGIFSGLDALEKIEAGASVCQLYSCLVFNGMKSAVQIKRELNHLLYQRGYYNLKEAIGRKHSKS
Description: Inhibition of Plasmodium falciparum C-terminal hexa-His tagged DHODH expressed in Escherichia coli by DCIP reduction assay

Plasmodium falciparum = assay: Antimalarial activity against Plasmodium falciparum 3D7 by [3H]hypoxanthine incorporation assay in presence of human serum; assay type: functional, organism-based
[2] = Inhibition of Plasmodium berghei C-terminal hexa-His tagged DHODH expressed in Escherichia coli by DCIP reduction assay
[3] = Lipophilicity, log D of the compound at pH 7.4; assay type: physicochemical; settings: buffer
[4] = Aqueous solubility of the compound at pH 6.5; assay type: physicochemical
Liver = assay: Intrinsic clearance in mouse liver microsomes; assay type: ADME, Microsome
Plasma = assay: Plasma protein binding in human by chromatographic method; assay type: ADME, cell-free
Liver microsomes = assay: Intrinsic clearance in human liver microsomes; assay type: ADME, Microsome
[5] = target: Dihydroorotate dehydrogenase (quinone), mitochondrial (Homo sapiens, UniProt Q02127)
Chain of Dihydroorotate dehydrogenase (quinone), mitochondrial (Q02127 whole entry): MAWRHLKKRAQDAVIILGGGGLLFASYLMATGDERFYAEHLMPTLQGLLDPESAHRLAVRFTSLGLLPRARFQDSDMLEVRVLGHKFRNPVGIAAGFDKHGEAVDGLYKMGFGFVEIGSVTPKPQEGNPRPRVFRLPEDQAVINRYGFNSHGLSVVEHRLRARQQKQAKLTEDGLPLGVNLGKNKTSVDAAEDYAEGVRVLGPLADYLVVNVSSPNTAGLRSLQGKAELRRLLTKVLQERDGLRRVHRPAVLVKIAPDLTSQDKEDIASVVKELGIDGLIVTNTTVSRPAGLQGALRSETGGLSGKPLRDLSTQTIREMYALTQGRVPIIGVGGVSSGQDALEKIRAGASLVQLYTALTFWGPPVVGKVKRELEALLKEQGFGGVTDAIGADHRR
Description: Inhibition of human C-terminal hexa-His tagged DHODH expressed in Escherichia coli by DCIP reduction assay

Row | Structure (SMILES) | IC50 [1] [nM] | EC50 (Plasmodium falciparum) [nM] | also measured
1 | Cc1cc(Nc2ccc(C(F)(F)F)cc2)n2nc(OCCN(C)C)nc2n1 | > 10000 |  | 
2 | Cc1cc(Nc2ccc(Cl)cc2)n2nc(CC3CC3)nc2n1 | 12000 |  | 
3 | COc1nc2nc(C)cc(Nc3cccc(Cl)c3)n2n1 |  | 980 | IC50 [2]: 1300 nM
4 | Cc1cc(Nc2ccc(Cl)cc2)n2nc(OCCN(C)C)nc2n1 | > 10000 |  | 
5 | COCCc1nc2nc(C)cc(Nc3ccc(Cl)cc3)n2n1 | > 10000 |  | 
6 | Cc1cc(Nc2cccc(Cl)c2)n2ncnc2n1 |  |  | logD [3]: 2.4
7 | COCCOc1nc2nc(C)cc(Nc3cccc(Cl)c3)n2n1 | 4900 |  | IC50 [2]: > 10000 nM
8 | CNCc1nc2nc(C)cc(Nc3ccc(Cl)cc3)n2n1 | > 10000 |  | 
9 | Cc1cc(Nc2cccc(Cl)c2)n2nc(CN(C)C)nc2n1 | > 10000 |  | 
10 | Cc1cc(Nc2ccc(Cl)cc2)n2nc(CCN)nc2n1 | > 10000 |  | 
11 | CNCCOc1nc2nc(C)cc(Nc3ccc(S(F)(F)(F)(F)F)cc3)n2n1 | > 10000 |  | 
12 | COCc1nc2nc(C)cc(Nc3cccc(Cl)c3)n2n1 | 1700 |  | 
13 | Cc1cc(Nc2ccc(C(F)(F)F)cc2)n2nc(S(C)(=O)=O)nc2n1 | 90 | 170 | 
14 | Cc1cc(Nc2ccc(S(F)(F)(F)(F)F)cc2)n2nc(CC3CC3)nc2n1 | 5700 | > 10000 | 
15 | Cc1cc(Nc2cccc(Cl)c2)n2nc(C(C)(F)F)nc2n1 | 54 | 130 | solubility [4]: 77 µM (≈ 24.9 µg/mL); logD [3]: 3; Intrinsic clearance (Liver): 72.2 µL/min/mg; PPB (Plasma): 88.2%; Intrinsic clearance (Liver microsomes): 44.4 µL/min/mg
16 | Cc1cc(Nc2ccc(C(F)(F)F)cc2)n2nc(C(C)(C)C)nc2n1 | 460 | 290 | IC50 [2]: 15000 nM; IC50 [5]: > 100000 nM
17 | COCCOc1nc2nc(C)cc(Nc3ccc(Cl)cc3)n2n1 | > 10000 |  | 
18 | CSc1nc2nc(C)cc(Nc3cccc(Cl)c3)n2n1 | 26 | 150 | 
19 | CCOc1nc2nc(C)cc(Nc3ccc(Cl)cc3)n2n1 | 270 | 1300 | IC50 [2]: 1600 nM; IC50 [5]: > 100000 nM
20 | CCC(C)c1nc2nc(C)cc(Nc3ccc(C(F)(F)F)cc3)n2n1 (stereo not drawn) | 380 | 270 | IC50 [2]: 4600 nM; IC50 [5]: > 100000 nM
21 | CCC(F)(F)c1nc2nc(C)cc(Nc3cccc(Cl)c3)n2n1 | 30 | 1200 | IC50 [2]: 1400 nM; IC50 [5]: > 100000 nM

Row | Structure (SMILES) | IC50 [1] [nM] | EC50 (Plasmodium falciparum) [nM] | also measured
22 | Cc1cc(Nc2ccc(C(F)(F)F)cc2)n2nc(CC3CC3)nc2n1 | 1700 | 3400 | 
23 | CNCc1nc2nc(C)cc(Nc3cccc(Cl)c3)n2n1 | > 10000 |  | 
24 | Cc1cc(Nc2ccc(Cl)cc2)n2nc(CN)nc2n1 | > 10000 |  | 
25 | Cc1cc(Nc2ccc(C(F)(F)F)cc2)n2nc(CC(C)C)nc2n1 | 2000 |  | 
26 | Cc1cc(Nc2ccc(Cl)cc2)n2nc(C3CC3)nc2n1 | 880 | 6800 | IC50 [2]: 2800 nM; IC50 [5]: > 100000 nM
27 | CNCCc1nc2nc(C)cc(Nc3cccc(Cl)c3)n2n1 | > 10000 | > 2500 | 
28 | CNCCOc1nc2nc(C)cc(Nc3ccc(Cl)cc3)n2n1 | > 10000 |  | 
29 | Cc1cc(Nc2ccc(S(F)(F)(F)(F)F)cc2)n2nc(S(C)(=O)=O)nc2n1 | 110 | 2000 | 
30 | Cc1cc(Nc2ccc(Cl)cc2)n2nc(S(C)(=O)=O)nc2n1 | 45 | 1400 | 
31 | Cc1cc(Nc2ccc(Cl)cc2)n2nc(OCCN)nc2n1 | > 10000 |  | 
32 | CSc1nc2nc(C)cc(Nc3ccc(Cl)cc3)n2n1 | 30 | 150 | 
33 | Cc1cc(Nc2cccc(Cl)c2)n2nc(CN)nc2n1 | > 10000 |  | 
34 | Cc1cc(Nc2ccc(S(F)(F)(F)(F)F)cc2)n2nc(C(C)(C)C)nc2n1 | 550 | 2300 | IC50 [2]: 16000 nM; IC50 [5]: > 100000 nM
35 | CNCCOc1nc2nc(C)cc(Nc3ccc(C(F)(F)F)cc3)n2n1 | > 10000 |  | 
36 | Cc1cc(Nc2ccc(C(F)(F)F)cc2)n2nc(OCCN)nc2n1 | > 10000 |  | 
37 | Cc1cc(Nc2cccc(Cl)c2)n2nc(S(C)(=O)=O)nc2n1 | 160 | > 2500 | 
38 | Cc1cc(Nc2ccc(Cl)cc2)n2nc(CN(C)C)nc2n1 | > 10000 |  | 
39 | COc1nc2nc(C)cc(Nc3ccc(Cl)cc3)n2n1 | 460 | 590 | IC50 [2]: 1200 nM
40 | Cc1cc(Nc2ccc(S(F)(F)(F)(F)F)cc2)n2nc(OCCN(C)C)nc2n1 | > 10000 |  | 
41 | Cc1cc(Nc2ccc(S(F)(F)(F)(F)F)cc2)n2nc(C(C)C)nc2n1 | 100 | 420 | IC50 [2]: 3800 nM; IC50 [5]: > 100000 nM
42 | Cc1cc(Nc2cccc(Cl)c2)n2nc(C3CC3)nc2n1 | 820 |  | IC50 [2]: 1700 nM; IC50 [5]: > 100000 nM

Row | Structure (SMILES) | IC50 [1] [nM] | EC50 (Plasmodium falciparum) [nM] | also measured
43 | CCOc1nc2nc(C)cc(Nc3cccc(Cl)c3)n2n1 | 400 | 4400 | IC50 [2]: 1900 nM; IC50 [5]: > 100000 nM
44 | CNCCc1nc2nc(C)cc(Nc3ccc(Cl)cc3)n2n1 | > 10000 | > 2500 | 
45 | Cc1cc(Nc2cccc(Cl)c2)n2nc(CC3CC3)nc2n1 | > 10000 |  | 
46 | Cc1cc(Nc2ccc(Cl)cc2)n2nc(CC(C)C)nc2n1 | > 10000 |  | 
47 | Cc1cc(Nc2ccc(Cl)cc2)n2nc(CO)nc2n1 | 5300 | > 2500 | 
48 | CCC(C)c1nc2nc(C)cc(Nc3ccc(S(F)(F)(F)(F)F)cc3)n2n1 (stereo not drawn) | 330 | 510 | IC50 [2]: 4500 nM; IC50 [5]: > 100000 nM
49 | Cc1cc(Nc2ccc(Cl)cc2)n2[nH]c(=O)nc2n1 | > 10000 |  | 
50 | Cc1cc(Nc2cccc(Cl)c2)n2nc(OCCN(C)C)nc2n1 | > 10000 |  | 
51 | Cc1cc(Nc2cccc(Cl)c2)n2nc(C(C)C)nc2n1 | 120 | 1100 | IC50 [2]: 570 nM
52 | CNCCOc1nc2nc(C)cc(Nc3cccc(Cl)c3)n2n1 | > 10000 |  | 
53 | Cc1cc(Nc2ccc(S(F)(F)(F)(F)F)cc2)n2nc(CC(C)C)nc2n1 | > 10000 |  | 
54 | COCc1nc2nc(C)cc(Nc3ccc(Cl)cc3)n2n1 | 2200 |  | 
55 | Cc1cc(Nc2ccc(C(F)(F)F)cc2)n2nc(C(F)(F)F)nc2n1 | 35 | 73 | Intrinsic clearance (Liver): < 6 µL/min/mg; Intrinsic clearance (Liver microsomes): < 5 µL/min/mg; IC50 [2]: 1300 nM; IC50 [5]: > 100000 nM
56 | CCC(F)(F)c1nc2nc(C)cc(Nc3ccc(Cl)cc3)n2n1 | 34 | 94 | IC50 [2]: 1800 nM; IC50 [5]: > 100000 nM
57 | Cc1cc(Nc2ccc(C(F)(F)F)cc2)n2nc(C(C)C)nc2n1 | 110 | 98 | IC50 [2]: 4500 nM; IC50 [5]: > 100000 nM
58 | Cc1cc(Nc2cccc(Cl)c2)n2[nH]c(=O)nc2n1 | > 10000 |  | 
59 | Cc1cc(Nc2cccc(Cl)c2)n2nc(OCCN)nc2n1 | > 10000 |  | 
60 | Cc1cc(Nc2cccc(Cl)c2)n2nc(CO)nc2n1 | 6100 | > 10000 | 
61 | COCCc1nc2nc(C)cc(Nc3cccc(Cl)c3)n2n1 | > 10000 |  | 
62 | Cc1cc(Nc2cccc(Cl)c2)n2nc(CC(C)C)nc2n1 | > 10000 |  | 
63 | Cc1cc(Nc2ccc(S(F)(F)(F)(F)F)cc2)n2nc(C(F)(F)F)nc2n1 | 30 | 140 | solubility [4]: 30 µM (≈ 12.6 µg/mL); logD [3]: 3.7; Intrinsic clearance (Liver): < 6 µL/min/mg; Intrinsic clearance (Liver microsomes): < 5 µL/min/mg; IC50 [2]: 2500 nM
